In this experiment the target is T1, human DP2 receptor (Homo sapiens, UniProt Q9Y5Y4).
T1 construct: expressed in transfected cells; host or cells: CHO-K1 FLP-In (Invitrogen, catalog no. R758-07), stably transfected
T1 sequence (Q9Y5Y4 1-395): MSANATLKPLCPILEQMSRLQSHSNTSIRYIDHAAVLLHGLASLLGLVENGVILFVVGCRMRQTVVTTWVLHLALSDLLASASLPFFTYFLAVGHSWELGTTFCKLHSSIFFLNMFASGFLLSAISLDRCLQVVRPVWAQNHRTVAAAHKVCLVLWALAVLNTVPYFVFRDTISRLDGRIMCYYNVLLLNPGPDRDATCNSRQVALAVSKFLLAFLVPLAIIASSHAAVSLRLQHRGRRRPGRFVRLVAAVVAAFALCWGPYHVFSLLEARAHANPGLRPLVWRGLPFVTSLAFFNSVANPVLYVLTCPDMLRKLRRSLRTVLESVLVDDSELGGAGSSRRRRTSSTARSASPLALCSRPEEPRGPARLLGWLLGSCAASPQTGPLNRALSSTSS
Description: Prostaglandin D2 binding inhibition assay (scintillation proximity assay, 3H PGD2, membranes of transfected CHO cells). The note with it: SPA, 5.5 nM 3H PGD2, CHO-K1 FLP-In human DP2 membranes; upper limit determinable 30 μM; read-out: IC50 ranges for inhibition of PGD2 binding to human DP2. How it is done: The ability of compounds to inhibit binding of prostaglandin D2 (PGD2) to the human DP2 receptor was measured using a scintillation proximity assay (SPA). Chinese Hamster Ovary FLP-In cell lines (CHO-K1 FLP-In, Invitrogen, catalog no. R758-07) were stably transfected with the human DP2 gene (Genebank: AY507142). Cell lines were grown in suspension in EX-CELL 302 CHO Serum-free medium (Sigma, catalog no. 14324C) supplemented with 1% Fetal Bovine Serum (Invitrogen no. 10099-141), 2 mM L-glutamine (Invitrogen, catalog no. 25030-081) and 0.5 mg/ml Hygromycin B (Invitrogen, catalog no. 10687-010). Cells were collected by centrifugation in a Beckman Coulter Allegra X-12R centrifuge at 150×g for 5 minutes at room temperature.
Membranes from transfected cells were isolated for binding assays. Cell pellets containing approximately 2×10^9 cells were resuspended in 35 ml of cold membrane homogenization buffer (10 mM Tris (Sigma, catalog no. T2663), 1 mM EDTA (Fluka BioChemika no. 03690), and 70 μl of protease inhibitor cocktail (Sigma, catalog no. P8340)). Cells were homogenized with 30 strokes of a dounce homogenizer (Kontes, catalog no. 885303-0040), and the solution centrifuged at 200×g for 10 minutes. The supernatant was transferred to a 50 ml Oakridge tube (Beckman, catalog no. 357000) and centrifuged in a Beckman Coulter Avanti J-26×PI centrifuge with a JA30.50 rotor at 81,000×g for 1 hour at 15° C. The pellet was resuspended in membrane storage buffer (50 mM Tris (Sigma, catalog no. T2663), 2.5 mM EDTA (Fluka BioChemika no. 03690), 5 mM magnesium chloride (Sigma, catalog no. M1028), 100 mg/ml sucrose (Sigma, catalog no. 50389) and a 1:500 dilution of protease inhibitor cocktail (Sigma, catalog no. P8340)) and the total protein was quantitated using a BCA protein measurement kit (Pierce, catalog no. 23225). Aliquots were frozen at −80° C. until used. Compounds were tested for their ability to inhibit PGD2 binding to the purified membranes. 5 μg of the purified membranes, 0.25 mg of wheat germ agglutinin PVT SPA beads (GE Healthcare, catalog no. RPNQ0060) and 5.5 nM of ^3H PGD2 (PerkinElmer, catalog no. NET-616) were mixed in assay buffer ((50 mM Tris (Sigma, catalog no. T2663), 10 mM magnesium chloride (Sigma, catalog no. M1028), 100 mM sodium chloride (Sigma, catalog no. S6546) and 0.1% bovine serum albumin (Sigma, catalog no. A2153)). Using a Multidrop bulk dispenser, 75 μl of the assay mixture was dispensed in Optiplates (PerkinElmer, catalog no. 6007299) containing the compounds to be tested. After a 60 minute incubation period at room temperature, the plates were read on a PerkinElmer Topcount NXT HTS, and individual wells were quantitated as counts per minute (CPM). Data were expressed as a percent of the difference between the maximum and minimum responses. IC50 values (the concentration of compound producing 50% of the maximal response) were determined using a two-parameter non-linear regression algorithm analyzed using CambridgeSoft Bioassay software. Table 2 gives the range of IC50 values for claimed compounds in the binding assay.
Background: SPA uses beads or plates that emit light when radiolabelled molecules are held near them.

The structures appear in SMILES notation. pIC50: −log10 of the molar value.

In general, pIC50 refers to the IC50 on a negative log10 scale, so that one unit is a factor of ten. In the case of `Cc1ccc(S(=O)(=O)N2CCC(n3c(=O)n(CC(=O)O)c4cccnc43)CC2)s1` [Compound 53, 2-(3-(1-(5-methylthiophen-2-ylsulfonyl)piperidin-4-yl)-2-oxo-2,3-dihydro-1H-imidazo[4,5-b]pyridin-1-yl)acetic acid], the pIC50 was 5.00 to 6.00.
The result for `Cc1noc(C)c1S(=O)(=O)N1CCC(n2c(=O)n(CC(=O)O)c3cccnc32)CC1` [Compound 54, 2-(3-(1-(3,5-dimethylisoxazol-4-ylsulfonyl)piperidin-4-yl)-2-oxo-2,3-dihydro-1H-imidazo[4,5-b]pyridin-1-yl)acetic acid] reads under 4.52; that for `O=C(O)Cn1c(=O)n(C2CCN(S(=O)(=O)c3ccc(F)cc3)CC2)c2ncccc21` [Compound 55, 2-(3-(1-(4-fluorophenylsulfonyl)piperidin-4-yl)-2-oxo-2,3-dihydro-1H-imidazo[4,5-b]pyridin-1-yl)acetic acid], 5.00 to 6.00.
With `Cc1ccc(CS(=O)(=O)N2CCC(n3c(=O)n(CC(=O)O)c4cccnc43)CC2)cc1` [Compound 56, 2-(3-(1-(4-methylbenzylsulfonyl)piperidin-4-yl)-2-oxo-2,3-dihydro-1H-imidazo[4,5-b]pyridin-1-yl)acetic acid] the figure was 4.52 to 5.00; with `O=C(O)Cn1c(=O)n(C2CCN(S(=O)(=O)c3ccc(Cl)cc3)CC2)c2ncccc21` [Compound 57, 2-(3-(1-(4-chlorophenylsulfonyl)piperidin-4-yl)-2-oxo-2,3-dihydro-1H-imidazo[4,5-b]pyridin-1-yl)acetic acid], 5.00 to 6.00.
The result for `O=C(O)Cn1c(=O)n(C2CCN(S(=O)(=O)c3ccccc3Cl)CC2)c2ncccc21` [Compound 58, 2-(3-(1-(2-chlorophenylsulfonyl)piperidin-4-yl)-2-oxo-2,3-dihydro-1H-imidazo[4,5-b]pyridin-1-yl)acetic acid] reads over 6.00; that for `O=C(O)Cn1c(=O)n(C2CCN(S(=O)(=O)c3ccc4ccccc4c3)CC2)c2ncccc21` [Compound 59, 2-(3-(1-(naphthalen-2-ylsulfonyl)piperidin-4-yl)-2-oxo-2,3-dihydro-1H-imidazo[4,5-b]pyridin-1-yl)acetic acid], 5.00 to 6.00; that for `O=C(O)Cn1c(=O)n(C2CCN(S(=O)(=O)c3ccsc3)CC2)c2ncccc21` [Compound 60, 2-(2-oxo-3-(1-(thiophen-3-ylsulfonyl)piperidin-4-yl)-2,3-dihydro-1H-imidazo[4,5-b]pyridin-1-yl)acetic acid], 5.00 to 6.00.
Regarding `N#Cc1ccc(S(=O)(=O)N2CCC(n3c(=O)n(CC(=O)O)c4cccnc43)CC2)cc1` [Compound 61, 2-(3-(1-(4-cyanophenylsulfonyl)piperidin-4-yl)-2-oxo-2,3-dihydro-1H-imidazo[4,5-b]pyridin-1-yl)acetic acid], the negative logarithm of the IC50 (pIC50) was 5.00 to 6.00.
As to `Cc1cccc(CS(=O)(=O)N2CCC(n3c(=O)n(CC(=O)O)c4cccnc43)CC2)c1` [Compound 62, 2-(3-(1-(3-methylbenzylsulfonyl)piperidin-4-yl)-2-oxo-2,3-dihydro-1H-imidazo[4,5-b]pyridin-1-yl)acetic acid], the pIC50 was 5.00 to 6.00.
With `O=C(O)Cn1c(=O)n(C2CCN(S(=O)(=O)Cc3ccc(F)cc3)CC2)c2ncccc21` [Compound 64, 2-(3-(1-(4-fluorobenzylsulfonyl)piperidin-4-yl)-2-oxo-2,3-dihydro-1H-imidazo[4,5-b]pyridin-1-yl)acetic acid] the figure was over 6.00; with `CC(C)(C)c1ccc(S(=O)(=O)N2CCC(n3c(=O)n(CC(=O)O)c4cccnc43)CC2)cc1` [Compound 65, 2-(3-(1-(4-tert-butylphenylsulfonyl)piperidin-4-yl)-2-oxo-2,3-dihydro-1H-imidazo[4,5-b]pyridin-1-yl)acetic acid], 5.00 to 6.00.
With `CS(=O)(=O)c1cccc(S(=O)(=O)N2CCC(n3c(=O)n(CC(=O)O)c4cccnc43)CC2)c1` [Compound 66, 2-(3-(1-(3-(methylsulfonyl)phenyl-sulfonyl)piperidin-4-yl)-2-oxo-2,3-dihydro-1H-imidazo[4,5-b]pyridin-1-yl)acetic acid] the figure was 5.00 to 6.00; with `O=C(O)Cn1c(=O)n(C2CCN(S(=O)(=O)c3ccccc3[N+](=O)[O-])CC2)c2ncccc21` [Compound 67, 2-(3-(1-(2-nitrophenylsulfonyl)piperidin-4-yl)-2-oxo-2,3-dihydro-1H-imidazo[4,5-b]pyridin-1-yl)acetic acid], over 6.00; with `O=C(O)Cn1c(=O)n(C2CCN(S(=O)(=O)c3cccnc3)CC2)c2ncccc21` [Compound 68, 2-(2-oxo-3-(1-(pyridin-3-ylsulfonyl)piperidin-4-yl)-2,3-dihydro-1H-imidazo[4,5-b]pyridin-1-yl)acetic acid], 4.52 to 5.00.
The result for `N#Cc1cccc(S(=O)(=O)N2CCC(n3c(=O)n(CC(=O)O)c4cccnc43)CC2)c1` [Compound 69, 2-(3-(1-(3-cyanophenylsuIfonyl)piperidin-4-yl)-2-oxo-2,3-dihydro-1H-imidazo[4,5-b]pyridin-1-yl)acetic acid] reads 5.00 to 6.00; that for `N#Cc1ccccc1S(=O)(=O)N1CCC(n2c(=O)n(CC(=O)O)c3cccnc32)CC1` [Compound 70, 2-(3-(1-(2-cyanophenylsulfonyl)piperidin-4-yl)-2-oxo-2,3-dihydro-1H-imidazo[4,5-b]pyridin-1-yl)acetic acid], over 6.00; that for `O=C(O)Cn1c(=O)n(C2CCN(S(=O)(=O)c3ccc(Cl)cc3F)CC2)c2ncc(F)cc21` [Compound 71, 2-(3-(1-(4-chloro-2-fluorophenyl-sulfonyl)piperidin-4-yl)-6-fluoro-2-oxo-2,3-dihydro-1H-imidazo[4,5-b]pyridin-1-yl)acetic acid], 5.00 to 6.00.
For the molecule `O=C(O)Cn1c(=O)n(C2CCN(S(=O)(=O)c3cccc4cccnc34)CC2)c2ncc(F)cc21` [Compound 72, 2-(6-fluoro-2-oxo-3-(1-(quinolin-8-ylsulfonyl)piperidin-4-yl)-2,3-dihydro-1H-imidazo[4,5-b]pyridin-1-yl)acetic acid], the pIC50 was 5.00 to 6.00.
Take `CC(C)Oc1ccc(S(=O)(=O)N2CCC(n3c(=O)n(CC(=O)O)c4cc(F)cnc43)CC2)cc1` [Compound 73, 2-(6-fluoro-3-(1-(4-isopropoxyphenyl-sulfonyl)piperidin-4-yl)-2-oxo-2,3-dihydro-1H-imidazo[4,5-b]pyridin-1-yl)acetic acid]: the pIC50 was 4.52 to 5.00.
The result for `CS(=O)(=O)c1ccccc1S(=O)(=O)N1CCC(n2c(=O)n(CC(=O)O)c3cc(F)cnc32)CC1` [Compound 74, 2-(6-fluoro-3-(1-(2-(methylsulfonyl)phenylsulfonyl)piperidin-4-yl)-2-oxo-2,3-dihydro-1H-imidazo[4,5-b]pyridin-1-yl)acetic acid] reads over 6.00.
Consider `CC(C)Oc1ccc(S(=O)(=O)N2CCC(n3c(=O)n(CC(=O)O)c4cccnc43)CC2)cc1` [Compound 75, 2-(3-(1-(4-isopropoxyphenylsulfonyl)piperidin-4-yl)-2-oxo-2,3-dihydro-1H-imidazo[4,5-b]pyridin-1-yl)acetic acid], for which the pIC50 was under 4.52.

The values are drawn from US20110190336A1, “AZABENZIMIDAZOLONES” (CARA THERAPEUTICS, INC., priority 2008, published 2011).
